# Measurements published in PMC6152024 (Molecules : A Journal of Synthetic Chemistry and Natural …, 2017).
# Experiments:
# CYP3A [1] = target: T1, CYP3A (Homo sapiens, UniProt P08684); assay: KI and kinact assay (CYP3A inactivation) in HLMs; assay type: in vitro ADME; parameters: tissue Meilun Biotechnology Co., Ltd. (Dalian, China) lot No. M0202A; host or cells: pooled (mixed) male human liver microsomes; settings: preincubation 0-30 min with NADPH-gs, 100 µM Tes
# Method: The following steps were similar as described in the IC50 shift assays. […] All the incubations were performed in triplicate.
# Pharmacokinetic profiles of CTX and DCCTX were estimated by one-compartmental model using the DAS 2.0 software ([…], Medical College of Wannan, Anhui, China). Data were expressed as mean ± SD. Comparisons between two groups were performed using one-way ANOVA followed by LSD test in the condition of variance homogeneity or Dunnett T3 test in the case of variance heterogeneity. The differences were considered to be statistically significant at * p < 0.05 and ** p < 0.01. IC50 values of Gom A were determined by nonlinear regression analysis using GraphPad Prism 5.01 software (GraphPad Software Inc., San Diego, CA, USA). The mode of inhibition was verified by Lineweaver-Burk plots of the enzyme kinetic data, and the KI value was determined by linear regression analysis with GraphPad Prism 5.01 (GraphPad Software Inc.). The initial inactivation rate constant (kobs, min^−1) was estimated from the initial slope of the linear regression line at each concentration of Gom A. Then the values of kobs were plotted versus Gom A concentration, and the maximal inactivation rate constant kinact, along with the concentration of inactivator (at which the rate of the inactivation is half maiximal) KI values, were determined using Equation (1). […]
# rat hepatic CYP3A = assay: Effect of Gom A pretreatment on rat hepatic CYP3A activity (liver microsomes from pretreated rats); assay type: in vivo; settings: RLMs; for DCCTX production decrease compared with control group: CTX 100 ng/mL; for rat hepatic CYP3A activity, % of the control group activity: Tes 25 µM
# Method: Rats were randomly divided into four groups (control group; pretreatment groups: 0.5 h group, 6 h group, 12 h group). Rats in control group and pretreatment groups were administrated (i.g.) with saline (2 mL/kg) and Gom A (20.8 mg/kg) respectively. In control group, rats were anesthetized 0.5 h after administration. In pretreatment groups, rats were anesthetized 0.5 h, 6 h, 12 h after Gom A pretreatment respectively. After anesthesia, the rat livers were infused with cool saline. After infusion, rats were euthanized and livers were collected. The liver microsomes were prepared using calcium precipitation method. Briefly, livers were weighted, washed with cool PBS (0.1 M), and then homogenized in cool Tris-PBS (50 mM Tris, w/v = 1:4). The mixture was centrifuged at 14,000 g for 20 min at 4 °C. The supernatant was mixed with CaCl2 solution (88 mM, vsupernantant/vCaCl2 = 10:1) and then centrifuged at 14,000 g for 20 min at 4 °C. The precipitate was resuspended in Tris-PBS and centrifuged (14,000 g, 4 °C, 20 min). Finally, the precipitate was resuspended in PBS containing 250 mM glucose, giving a concentration of 5 mg protein/mL. The prepared microsomes were stored at −80 °C until use.
# To determine the effect of Gom A pretreatment on rat hepatic CYP3A activity, liver microsomes from control and pretreatment groups were incubated with Tes (25 µM) and CTX (100 ng/mL) respectively. The incubation procedures were similar with Section 4.3.1 and Section 4.3.4 for Tes and CTX incubation, respectively. For incubations using Tes, 0.5 mg/mL RLMs was incubated with 25 µM Tes in PBS (0.1 M) containing NADPH-gs at 37 °C in a total volume of 200 µL. After a 5 min warm up period, reactions were initiated with addition of NADPH-gs. Incubations were conducted at 37 °C for 10 min and then terminated by the addition of 200 µL ice-cold acetonitrile containing 18 ng/mL phenacetin (IS-I). For incubations using CTX, 0.5 mg/mL RLMs was incubated with 100 ng/mL CTX in PBS (0.1 M) containing NADPH-gs at 37 °C in a total volume of 200 µL. After a 5 min warm up period, reactions were initiated with addition of NADPH-gs. Incubations were conducted at 37 °C for 60 min and then terminated by the addition of 200 µL ice-cold acetonitrile containing 6 ng/mL of TNZ (IS-II).
# After reaction termination, concentration of 6OH-Tes and DCCTX were determined.
# CYP3A [2] = target: T1, CYP3A; assay: IC50 shift assay (time- and NADPH-dependent inhibition) in HLMs; assay type: in vitro ADME
# Method: A NADPH regenerating system (NADPH-gs, containing 10 mM glucose-6-phosphate, 5 mM magnesium chloride, 1 U/mL glucose-6-phosphate dehydrogenase and 1 mM NADP+) was constructed. The metabolite of Tes, 6OH-Tes, was assayed by UHPLC-MS method (I) for CYP3A activity assessment.
# In a final volume of 100 µL, Gom A at different concentrations (0, 0.08, 0.31, 0.63, 2.5, 10 and 40 µM) was preincubated with 10 × HLMs (5 mg/mL) at 37 °C with NADPH-gs in PBS (0.1 M). After 30 min, the incubation mixture was diluted 10 folds using PBS (0.1 M). Then 100 µL of the diluted mixture was added into a secondary incubation containing NADPH-gs and 25 µM Tes. The final volume was 200 µL. After 10 min incubation, the reaction was terminated by the addition of 200 µL ice-cold acetonitrile containing 18 ng/mL phenacetin (IS-I). […]
# Pharmacokinetic profiles of CTX and DCCTX were estimated by one-compartmental model using the DAS 2.0 software ([…], Medical College of Wannan, Anhui, China). Data were expressed as mean ± SD. […] IC50 values of Gom A were determined by nonlinear regression analysis using GraphPad Prism 5.01 software (GraphPad Software Inc., San Diego, CA, USA). The mode of inhibition was verified by Lineweaver-Burk plots of the enzyme kinetic data, and the KI value was determined by linear regression analysis with GraphPad Prism 5.01 (GraphPad Software Inc.). […]
# [3] = 0.5 h after Gom A 20.8 mg/kg i.g.
# [4] = 6 h after Gom A 20.8 mg/kg i.g.
# [5] = 12 h after Gom A 20.8 mg/kg i.g.
# T1 sequence (P08684 2-503): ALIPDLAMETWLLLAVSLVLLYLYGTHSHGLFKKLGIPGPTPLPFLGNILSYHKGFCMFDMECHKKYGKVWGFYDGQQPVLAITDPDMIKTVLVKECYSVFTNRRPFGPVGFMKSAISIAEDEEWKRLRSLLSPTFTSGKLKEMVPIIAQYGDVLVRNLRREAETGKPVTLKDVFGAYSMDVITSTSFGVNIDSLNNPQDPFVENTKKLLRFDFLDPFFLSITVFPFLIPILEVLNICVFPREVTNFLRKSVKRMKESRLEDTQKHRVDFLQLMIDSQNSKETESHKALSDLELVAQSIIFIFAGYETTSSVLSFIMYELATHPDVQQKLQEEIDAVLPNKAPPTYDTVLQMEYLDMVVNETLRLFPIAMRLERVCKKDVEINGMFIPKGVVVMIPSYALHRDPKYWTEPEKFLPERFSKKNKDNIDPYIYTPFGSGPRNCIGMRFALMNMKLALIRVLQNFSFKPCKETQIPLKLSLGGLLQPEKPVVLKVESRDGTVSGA
substance,measurement,setting,value
Gomisin A [Gom A],kinact,CYP3A [1],1.96 min⁻¹
same,DCCTX production decrease compared with control group,rat hepatic CYP3A; [3],54.7%
same,"rat hepatic CYP3A activity, % of the control group activity",rat hepatic CYP3A; [3],52.1%
same,DCCTX production decrease compared with control group,rat hepatic CYP3A; [4],52.0%
same,"rat hepatic CYP3A activity, % of the control group activity",rat hepatic CYP3A; [4],37.3%
same,DCCTX production decrease compared with control group,rat hepatic CYP3A; [5],40.5%
same,"rat hepatic CYP3A activity, % of the control group activity",rat hepatic CYP3A; [5],61.2%
same,NADPH dependence of CYP3A inhibition,"CYP3A [2]; Gom A 1 µM preincubated 30 min with vs without NADPH-gs, data not shown",more potent when Gom A was preincubated with NADPH
same,shift in IC50,CYP3A [2]; with vs without 30 min preincubation,1.8 fold
